Test [1] addresses T1, Estrogen receptor (Homo sapiens) (UniProt P03372).
T1 sequence (whole entry): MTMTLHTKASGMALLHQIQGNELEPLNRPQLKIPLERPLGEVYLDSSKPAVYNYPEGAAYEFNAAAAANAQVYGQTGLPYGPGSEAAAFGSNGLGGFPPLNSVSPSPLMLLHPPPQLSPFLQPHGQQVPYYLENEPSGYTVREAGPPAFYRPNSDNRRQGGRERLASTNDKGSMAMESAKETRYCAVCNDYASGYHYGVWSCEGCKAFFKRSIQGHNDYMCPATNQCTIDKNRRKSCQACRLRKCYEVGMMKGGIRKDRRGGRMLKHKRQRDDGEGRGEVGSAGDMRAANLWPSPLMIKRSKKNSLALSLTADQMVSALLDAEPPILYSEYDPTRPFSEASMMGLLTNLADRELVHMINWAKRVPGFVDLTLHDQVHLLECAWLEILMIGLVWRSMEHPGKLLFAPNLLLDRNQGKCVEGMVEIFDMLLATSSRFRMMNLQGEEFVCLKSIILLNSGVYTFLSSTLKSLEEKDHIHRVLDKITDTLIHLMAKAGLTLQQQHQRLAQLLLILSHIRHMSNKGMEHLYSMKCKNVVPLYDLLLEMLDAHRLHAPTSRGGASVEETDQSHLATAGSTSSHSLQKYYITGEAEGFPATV
The experiment in a line: Displacement of [3H]estradiol from human ERalpha relative to estradiol.

For test [2], the target named is Estrogen receptor beta (Homo sapiens) (UniProt Q92731). The experiment in a line: Displacement of [3H]estradiol from human ERbeta relative to estradiol.
Chain of Estrogen receptor beta (Homo sapiens) (Q92731 whole entry): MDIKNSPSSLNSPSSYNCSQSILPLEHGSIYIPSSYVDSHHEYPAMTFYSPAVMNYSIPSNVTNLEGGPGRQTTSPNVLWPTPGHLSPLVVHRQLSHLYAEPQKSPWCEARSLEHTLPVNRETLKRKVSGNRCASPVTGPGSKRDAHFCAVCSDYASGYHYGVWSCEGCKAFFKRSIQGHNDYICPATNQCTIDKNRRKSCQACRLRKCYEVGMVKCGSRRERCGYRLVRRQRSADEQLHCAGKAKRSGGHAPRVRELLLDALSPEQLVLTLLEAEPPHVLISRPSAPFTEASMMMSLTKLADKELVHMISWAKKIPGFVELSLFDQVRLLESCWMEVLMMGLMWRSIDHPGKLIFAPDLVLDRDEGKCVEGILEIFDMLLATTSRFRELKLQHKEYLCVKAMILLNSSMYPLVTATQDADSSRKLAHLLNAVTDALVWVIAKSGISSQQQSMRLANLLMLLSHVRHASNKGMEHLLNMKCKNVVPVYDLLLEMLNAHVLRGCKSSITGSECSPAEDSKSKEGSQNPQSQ
The next test concerns the target T2, Estrogen receptor (Homo sapiens, UniProt P03372).
T2 sequence (P03372 whole entry): T1 sequence (whole entry)
As to the kind of experiment: Displacement of [3H]estradiol from human ERalpha.

The target of test [3] is T3, Estrogen receptor (Homo sapiens) (UniProt Q92731+P03372). The experiment in a line: Ratio of RBA for human ERalpha to RBA for human ERbeta. It is filed as protein assay.
T3 sequence (Q92731 whole entry, looked up, one chain of several): as the sequence (Q92731 whole entry) above
The target in test [4] is T3, Estrogen receptor (Homo sapiens). As to the kind of experiment: Ratio of Kd for human ERalpha to Kd for human ERbeta. It is filed as protein assay.
For test [5] the target is unchanged. The experiment in a line: Ratio of RBA for human ERbeta to RBA for human ERalpha. It is filed as protein assay.

Each structure is given as a SMILES string.

In the case of `CNc1c(/C=N/O)ccc(-c2ccc(O)cc2)c1-c1ccccc1`, the relative binding affinity (RBA) in test [1] was 5.38; in test [2] it was 1.11. The molecule further gave a Kd at Estrogen receptor of 3.7 nM.

With `CNc1c(/C=N/O)ccc(-c2cccc(C)c2)c1-c1cccc(C)c1`, the relative binding affinity (RBA) in test [1] stood at 3.91; in test [2], 2.13. Besides, the Selectivity ratio in test [3] came to 2.

For `CNc1c(/C=N/O)ccc(-c2ccccc2)c1-c1ccc(O)cc1`, the relative binding affinity (RBA) was 1.17 in test [1] and 0.72 in test [2].

For the molecule `CNc1c(/C=N/O)ccc(-c2cccc(O)c2)c1-c1cccc(O)c1`, the relative binding affinity (RBA) stood at 0.14 in test [1] and 0.05 in test [2].

As for `CNc1c(/C=N/O)ccc(-c2cccc(OC)c2)c1-c1cccc(OC)c1`, the relative binding affinity (RBA) was 0.65 in test [1] and 0.14 in test [2].

For the molecule `CNc1c(/C=N/O)ccc(-c2ccc(OC)cc2)c1-c1ccc(OC)cc1`, the relative binding affinity (RBA) in test [1] was found to be 2.33; in test [2], 0.47.

As for `CNc1c(/C=N/O)ccc(-c2ccc(O)cc2)c1-c1ccc(O)cc1`, the relative binding affinity (RBA) in test [1] stood at 1.96; in test [2], 0.14. Moreover, the Selectivity ratio in test [4] turned out to be 36.

`CNc1c(/C=N/O)ccc(-c2ccc(C)cc2)c1-c1ccc(C)cc1`: the relative binding affinity (RBA) in test [1] was 0.95; in test [2] it was 1.86. Also, the Selectivity ratio in test [5] turned out to be 2.

Source of the values: ChEMBL document CHEMBL1145331, “Synthesis of anthranylaldoxime derivatives as estrogen receptor ligands and computational prediction of binding modes” (J Med Chem, 2006).
